Reference: patent publication US20050124618A1, “Methods of modulating angiogenesis and cancer cell proliferation” (priority 2003, published 2005)

System: U251 human glioma cells
Test: DNA fragmentation and TUNEL assays in U251 cells
Format: cell-based
Settings: HET0016
Description: DNA Fragmentation and TUNEL Assays: HET0016-treated cultures were washed twice with 1×PBS and incubated with lysis buffer [20 mM Tris-HCl, 10 mM EDTA, 0.3% Triton X-100]. Genomic DNA was extracted and separated on a 2% agarose gel. Separated DNA was visualized by staining gels with ethidium bromide (EtBr). […] Coverslips were washed 3× with PBS and air-dried. Samples were then fixed with a freshly prepared fixation solution (4% paraformaldehyde in PBS, pH 7.4) for 1 hr at room temperature, followed by incubation in fresh permeabilization solution (0.1% Triton X-100 in 0.1% sodium citrate) for 2 min on ice. Finally, samples were processed using in situ Cell Death Detection Kit, AP (Roche Diagnostics, Indianapolis, Ind.) according to the manufacturer's recommendations.

CCCCc1ccc(N=CNO)c(C)c1 [HET0016, N-hydroxy-N′-(4-butyl-2 methylphenyl) formamidine]
induction of apoptosis (DNA fragmentation and TUNEL): does not induce apoptosis
